From patent publication US6355799B1, “Substituted benzene compounds, process for their preparation, and herbicidal and defoliant compositions containing them” (ISK Americas Incorporated, priority 1997, dated 2002)

How the values were obtained:
Format in all cases: in vivo
[1] = tested on: barnyardgrass (Echinochloa crus-galli, ECHCG); assay: Pre-emerge test, greenhouse herbicide activity screening; settings: for Pre-emerge Herbicidal Activity ECHCG: phytotoxicity rating 0-100 at 14 days after application; for Pre-emerge herbicidal activity, phytotoxicity rating ECHCG: rating scale 0-100, 14 days after application
From the text: (§1) A standard greenhouse herbicide activity screening system was used to evaluate the herbicidal efficacy and crop safety of these test compounds. Seven broadleaf weed species including redroot pigweed (Amaranthus retroflexus, AMARE, velvetleaf (Abutilon theophrasti, ABUTH), sicklepod (Cassia obtusifolia, CASOB), ivyleaf morningglory (Ipomoea hederacea, IPOHE), lambsquarters (Chenopodium album, CHEAL), common ragweed (Ambrosia artemisizfolia L., AMBEL), and cocklebur (Xanthium strumarium, XANST) were used as test species. Four grass weed species including green foxtail (Setaria viridis, SETVI), barnyardgrass (Echinochloa crus-galli, ECHCG), johnsongrass (Sorghum halepense, SORHA), and large crabgrass (Digitaria sanguinalis, DIGSA) were also used. In addition, three crop species, field corn (Zea mays L., var. Dekalb 535, CORN), soybean (Glycine max L., var. Pella 86, SOY), and is upland rice (Oryza sp., var. Tebonnet, RICE) were included.
(§2) All plants were grown in 10 cm square plastic pots which were filled with a sandy loam soil mix. For pre-emerge tests, seeds were planted one day prior to application of the test compounds. For post-emerge tests, seeds were planted 8-21 days prior to the test to allow emergence and good foliage development prior to application of the test substances. At the time of the post-emerge application, plants of all species were usually at the 2-3 leaf stage of development.
(§3) All test compounds Were dissolved in acetone and applied to the test units in a volume of 187 l /ha. Test materials were applied at rates ranging from 15 g ai/ha to 1000 g ai/ha using a track sprayer equipped with a TJ8001E even flow flat fan spray nozzle. Plants were arranged on a shelf so that the top of the canopy (post-emerge) or top of the soil surface (pre-emerge) was 40-45 cm below the nozzle. Pressurized air was used to force the test solution through the nozzle as it was mechanically advanced (via electrically driven chain drive) over the top of all test plants/pots. This application simulates a typical commercial field herbicide application.
(§4) In the post-emerge test, a commercial non-ionic surfactant was also included (0.25% v/v) to enhance wetting of the leaf surfaces of target plants. Immediately after application, test units of the pre-emerge applications were watered at the soil surface to incorporate the test materials. Subsequently, these test units were bottom-watered. Post-emerge test units were always bottom-watered.
(§5) At 14 days after application of the test materials, phytotoxicity ratings were recorded. A rating scale of 0-100 was used as previously described in Research Methods in Weed Science, 2nd edition, B. Truelove, Ed., Southern Weed Science Society, Auburn University, Auburn, Ala. 1977. Briefly, “0” corresponds to no damage and “100” corresponds to complete death of all plants in the test unit. This scale was used both to determine efficacy against weed species and damage to crop species. Herbicide activity data for various compounds of this invention, which are shown by compound No. in Tables 1-8, are shown in Tables 11 and 12.

[2] = tested on: large crabgrass (Digitaria sanguinalis, DIGSA); assay: as above; settings: for Pre-emerge Herbicidal Activity DIGSA: phytotoxicity rating 0-100 at 14 days after application; for Pre-emerge herbicidal activity, phytotoxicity rating DIGSA: rating scale 0-100, 14 days after application
From the text: as §1, §2, §3, §4, §5

[3] = tested on: green foxtail (Setaria viridis, SETVI); assay: as above; settings: for Pre-emerge Herbicidal Activity SETVI: phytotoxicity rating 0-100 at 14 days after application; for Pre-emerge herbicidal activity, phytotoxicity rating SETVI: rating scale 0-100, 14 days after application
From the text: as §1, §2, §3, §4, §5

[4] = tested on: velvetleaf (Abutilon theophrasti, ABUTH); assay: as above; settings: for Pre-emerge Herbicidal Activity ABUTH: phytotoxicity rating 0-100 at 14 days after application; for Pre-emerge herbicidal activity, phytotoxicity rating ABUTH: rating scale 0-100, 14 days after application
From the text: as §1, §2, §3, §4, §5

[5] = tested on: lambsquarters (Chenopodium album, CHEAL); assay: as above; settings: for Pre-emerge Herbicidal Activity CHEAL: phytotoxicity rating 0-100 at 14 days after application; for Pre-emerge herbicidal activity, phytotoxicity rating CHEAL: rating scale 0-100, 14 days after application
From the text: as §1, §2, §3, §4, §5

[6] = tested on: ivyleaf morningglory (Ipomoea hederacea, IPOHE); assay: as above; settings: for Pre-emerge Herbicidal Activity IPOHE: phytotoxicity rating 0-100 at 14 days after application; for Pre-emerge herbicidal activity, phytotoxicity rating IPOHE: rating scale 0-100, 14 days after application
From the text: as §1, §2, §3, §4, §5

[7] = tested on: sicklepod (Cassia obtusifolia, CASOB); assay: as above; settings: for Pre-emerge Herbicidal Activity CASOB: phytotoxicity rating 0-100 at 14 days after application; for Pre-emerge herbicidal activity, phytotoxicity rating CASOB: rating scale 0-100, 14 days after application
From the text: as §1, §2, §3, §4, §5

[8] = tested on: field corn (Zea mays L., var. Dekalb 535, CORN); assay: Post-emerge test, crop safety; settings: post-emerge, crop damage rating 0-100 at 14 days after application
In short: (§6)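 Compounds in acetone were track-sprayed at 15-1000 g ai/ha (187 l/ha) on sandy loam pots: pre-emerge one day after seeding, post-emerge at 2-3 leaf stage with 0.25% v/v non-ionic surfactant. Phytotoxicity was rated 14 days later on a 0 (no damage) to 100 (complete death) scale.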

[9] = tested on: upland rice (Oryza sp., var. Tebonnet, RICE); assay: Post-emerge test, crop safety; settings: post-emerge, crop damage rating 0-100 at 14 days after application
In short: as §6

[10] = tested on: barnyardgrass (Echinochloa crus-galli, ECHCG); assay: Post-emerge test, greenhouse herbicide activity screening; settings: post-emerge, phytotoxicity rating 0-100 at 14 days after application
From the text: as §1, §2, §3, §4, §5

[11] = tested on: large crabgrass (Digitaria sanguinalis, DIGSA); assay: as above; settings: post-emerge, phytotoxicity rating 0-100 at 14 days after application
From the text: as §1, §2, §3, §4, §5

[12] = tested on: green foxtail (Setaria viridis, SETVI); assay: as above; settings: post-emerge, phytotoxicity rating 0-100 at 14 days after application
From the text: as §1, §2, §3, §4, §5

[13] = tested on: velvetleaf (Abutilon theophrasti, ABUTH); assay: as above; settings: post-emerge, phytotoxicity rating 0-100 at 14 days after application
From the text: as §1, §2, §3, §4, §5

[14] = tested on: lambsquarters (Chenopodium album, CHEAL); assay: as above; settings: post-emerge, phytotoxicity rating 0-100 at 14 days after application
From the text: as §1, §2, §3, §4, §5

[15] = tested on: redroot pigweed (Amaranthus retroflexus, AMARE); assay: as above; settings: post-emerge, phytotoxicity rating 0-100 at 14 days after application
From the text: as §1, §2, §3, §4, §5

[16] = tested on: ivyleaf morningglory (Ipomoea hederacea, IPOHE); assay: as above; settings: post-emerge, phytotoxicity rating 0-100 at 14 days after application
From the text: as §1, §2, §3, §4, §5

[17] = tested on: sicklepod (Cassia obtusifolia, CASOB); assay: as above; settings: post-emerge, phytotoxicity rating 0-100 at 14 days after application
From the text: as §1, §2, §3, §4, §5

[18] = tested on: field corn (Zea mays L., var. Dekalb 535, CORN); assay: Pre-emerge test, crop safety; settings: for Pre-emerge Herbicidal Activity CORN: crop damage, phytotoxicity rating 0-100 at 14 days after application; for Pre-emerge phytotoxicity rating, crop damage CORN: rating scale 0-100, 14 days after application
In short: (§7)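 Fourteen days after spraying, crop and weed injury was graded visually from 0, no effect, to 100, every plant dead. Test substances were dissolved in acetone and applied at 15–1000 g ai/ha with a flat-fan nozzle. Application was either pre-emergence, one day after sowing, or post-emergence at the 2–3 leaf stage.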

[19] = tested on: upland rice (Oryza sp., var. Tebonnet, RICE); assay: Pre-emerge test, crop safety; settings: for Pre-emerge Herbicidal Activity RICE: crop damage, phytotoxicity rating 0-100 at 14 days after application; for Pre-emerge phytotoxicity rating, crop damage RICE: rating scale 0-100, 14 days after application
In short: as §7

[20] = tested on: redroot pigweed (Amaranthus retroflexus, AMARE); assay: Pre-emerge test, greenhouse herbicide activity screening; settings: for Pre-emerge Herbicidal Activity AMARE: phytotoxicity rating 0-100 at 14 days after application; for Pre-emerge herbicidal activity, phytotoxicity rating AMARE: rating scale 0-100, 14 days after application
In short: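 Plants grown in 10 cm pots of sandy loam mix received acetone-dissolved compounds through a moving flat-fan nozzle. Doses ranged from 15 to 1000 g ai/ha. Pre-emerge pots were seeded one day earlier, post-emerge pots 8–21 days earlier. Fourteen days on, each pot was graded 0–100 for damage.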

Row | Structure (SMILES) | Post-emerge Herbicidal Activity CORN ([8]; 63 g ai/ha) | Post-emerge Herbicidal Activity CORN ([8]; 250 g ai/ha) | Post-emerge Herbicidal Activity RICE ([9]; 63 g ai/ha) | Post-emerge Herbicidal Activity RICE ([9]; 250 g ai/ha) | Post-emerge Herbicidal Activity ECHCG ([10]; 63 g ai/ha) | Post-emerge Herbicidal Activity ECHCG ([10]; 250 g ai/ha) | Post-emerge Herbicidal Activity DIGSA ([11]; 63 g ai/ha) | Post-emerge Herbicidal Activity DIGSA ([11]; 250 g ai/ha) | Post-emerge Herbicidal Activity SETVI ([12]; 63 g ai/ha) | Post-emerge Herbicidal Activity SETVI ([12]; 250 g ai/ha) | Post-emerge Herbicidal Activity ABUTH ([13]; 63 g ai/ha) | Post-emerge Herbicidal Activity ABUTH ([13]; 250 g ai/ha) | Post-emerge Herbicidal Activity CHEAL ([14]; 63 g ai/ha) | Post-emerge Herbicidal Activity CHEAL ([14]; 250 g ai/ha) | Post-emerge Herbicidal Activity AMARE ([15]; 63 g ai/ha) | Post-emerge Herbicidal Activity AMARE ([15]; 250 g ai/ha) | Post-emerge Herbicidal Activity IPOHE ([16]; 63 g ai/ha) | Post-emerge Herbicidal Activity IPOHE ([16]; 250 g ai/ha) | Post-emerge Herbicidal Activity CASOB ([17]; 63 g ai/ha) | Post-emerge Herbicidal Activity CASOB ([17]; 250 g ai/ha) | other results
1 | Cc1c(Cl)cc(F)c(-n2c(=O)cc(C(F)(F)F)n(C)c2=O)c1NC(=O)OCc1ccco1 [4-70] | 40 | 90 | 30 | 70 | 40 | 80 | 30 | 70 | 60 | 95 | 100 | 100 | 90 | 100 | 90 | 100 | 100 | 100 | 60 | 90 | Pre-emerge Herbicidal Activity ECHCG ([1]; rate 63 g ai/ha): 40; Pre-emerge Herbicidal Activity ECHCG ([1]; rate 250 g ai/ha): 95; Pre-emerge Herbicidal Activity DIGSA ([2]; rate 63 g ai/ha): 60; Pre-emerge Herbicidal Activity DIGSA ([2]; rate 250 g ai/ha): 100; Pre-emerge Herbicidal Activity SETVI ([3]; rate 63 g ai/ha): 60; Pre-emerge Herbicidal Activity SETVI ([3]; rate 250 g ai/ha): 100; Pre-emerge Herbicidal Activity ABUTH ([4]; rate 63 g ai/ha): 100; Pre-emerge Herbicidal Activity ABUTH ([4]; rate 250 g ai/ha): 100; Pre-emerge Herbicidal Activity CHEAL ([5]; rate 63 g ai/ha): 100; Pre-emerge Herbicidal Activity CHEAL ([5]; rate 250 g ai/ha): 100; Pre-emerge Herbicidal Activity IPOHE ([6]; rate 63 g ai/ha): 100; Pre-emerge Herbicidal Activity IPOHE ([6]; rate 250 g ai/ha): 100; Pre-emerge Herbicidal Activity CASOB ([7]; rate 63 g ai/ha): 50; Pre-emerge Herbicidal Activity CASOB ([7]; rate 250 g ai/ha): 80; Pre-emerge Herbicidal Activity CORN ([18]; rate 63 g ai/ha): 90; Pre-emerge Herbicidal Activity CORN ([18]; rate 250 g ai/ha): 95; Pre-emerge Herbicidal Activity RICE ([19]; rate 63 g ai/ha): 40; Pre-emerge Herbicidal Activity RICE ([19]; rate 250 g ai/ha): 70; Pre-emerge Herbicidal Activity AMARE ([20]; rate 63 g ai/ha): 100; Pre-emerge Herbicidal Activity AMARE ([20]; rate 250 g ai/ha): 100
2 | COc1c(Cl)cc(F)c(N2C(=O)C3CCCCN3C2=S)c1NC(=O)c1ccc2ccccc2c1 (centres unmarked) [12-5] | 25 | 20 | 20 | 15 | 10 | 10 | 0 | 10 | 20 | 10 | 100 | 100 | 100 | 99 | 70 | 85 | 100 | 99 | 40 | 60 | Pre-emerge herbicidal activity, phytotoxicity rating ECHCG ([1]; 63 g ai/ha): 0; Pre-emerge herbicidal activity, phytotoxicity rating ECHCG ([1]; 250 g ai/ha): 40; Pre-emerge herbicidal activity, phytotoxicity rating DIGSA ([2]; 63 g ai/ha): 0; Pre-emerge herbicidal activity, phytotoxicity rating DIGSA ([2]; 250 g ai/ha): 10; Pre-emerge herbicidal activity, phytotoxicity rating SETVI ([3]; 63 g ai/ha): 0; Pre-emerge herbicidal activity, phytotoxicity rating SETVI ([3]; 250 g ai/ha): 0; Pre-emerge herbicidal activity, phytotoxicity rating ABUTH ([4]; 63 g ai/ha): 70; Pre-emerge herbicidal activity, phytotoxicity rating ABUTH ([4]; 250 g ai/ha): 90; Pre-emerge herbicidal activity, phytotoxicity rating CHEAL ([5]; 63 g ai/ha): 90; Pre-emerge herbicidal activity, phytotoxicity rating CHEAL ([5]; 250 g ai/ha): 100; Pre-emerge herbicidal activity, phytotoxicity rating IPOHE ([6]; 63 g ai/ha): 0; Pre-emerge herbicidal activity, phytotoxicity rating IPOHE ([6]; 250 g ai/ha): 20; Pre-emerge herbicidal activity, phytotoxicity rating CASOB ([7]; 63 g ai/ha): 0; Pre-emerge herbicidal activity, phytotoxicity rating CASOB ([7]; 250 g ai/ha): 80; Pre-emerge phytotoxicity rating, crop damage CORN ([18]; 63 g ai/ha): 0; Pre-emerge phytotoxicity rating, crop damage CORN ([18]; 250 g ai/ha): 0; Pre-emerge phytotoxicity rating, crop damage RICE ([19]; 63 g ai/ha): 0; Pre-emerge phytotoxicity rating, crop damage RICE ([19]; 250 g ai/ha): 10; Pre-emerge herbicidal activity, phytotoxicity rating AMARE ([20]; 63 g ai/ha): 30; Pre-emerge herbicidal activity, phytotoxicity rating AMARE ([20]; 250 g ai/ha): 100
